According to US8309718B2, “4-pyrazolyl-N-arylpyrimidin-2-amines and 4-pyrazolyl-N-heteroarylpyrimidin-2-amines as janus kinase inhibitors” (Incyte Corporation, priority 2007, dated 2012):

Molecular target: T1, human JAK2 (Homo sapiens, UniProt O60674)
T1 construct: JAK2 (a.a. 828-1132); His tag (N); made in house; host or cells: insect cells (baculovirus)
Experiment: In vitro JAK kinase assay (HTRF, phosphorylation of biotinylated peptide)
Type: biochemical
Conditions: catalytic domain a.a. 828-1132, 30 μM ATP, 500 nM peptide, room temperature 1 hr; read-out: JAK-2 IC50
Method in brief: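 His-tagged human JAK2 catalytic domain (a.a. 828-1132), baculovirus/insect-cell expressed; phosphorylation of 500 nM biotinylated peptide at 30 μM ATP in 50 mM Tris pH 7.8, 100 mM NaCl, 5 mM DTT, 0.01% BSA. 1 h at room temperature, EDTA stop, HTRF read (Eu-Py20/SA-APC); IC50.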

T1 sequence (O60674 828-1132): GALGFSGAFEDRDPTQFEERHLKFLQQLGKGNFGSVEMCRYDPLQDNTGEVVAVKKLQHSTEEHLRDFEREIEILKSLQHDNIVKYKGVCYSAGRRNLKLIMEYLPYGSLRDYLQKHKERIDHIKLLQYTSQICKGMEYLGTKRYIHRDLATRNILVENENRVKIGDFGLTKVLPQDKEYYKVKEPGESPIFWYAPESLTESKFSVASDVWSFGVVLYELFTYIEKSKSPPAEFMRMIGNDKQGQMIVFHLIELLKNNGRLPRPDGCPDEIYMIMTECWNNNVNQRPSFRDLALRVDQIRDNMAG

IC50, < 100 nM:
N#CCC(C1CCCC1)n1cc(-c2ccnc(Nc3ccc(C(=O)N4CCC5(CC4)CNC(=O)C5)cc3)n2)cn1 (racemic) [Example 228, 3-cyclopentyl-3-(4-(2-(4-(3-oxo-2,8-diazaspiro[4.5]decane-8-carbonyl)phenylamino)pyrimidin-4-yl)-1H-pyrazol-1-yl)propanenitrile]
N#CCC(C1CCCC1)n1cc(-c2ccnc(Nc3cccc(C(=O)NCc4cccnc4)c3)n2)cn1 (racemic) [Example 146, 3-(4-(1-(2-cyano-1-cyclopentylethyl)-1H-pyrazol-4-yl)pyrimidin-2-ylamino)-N-(pyridin-3-ylmethyl)benzamide]
COc1cnc(Nc2cccc(C(=O)N3CC[C@H](OC)C3)c2)nc1-c1cnn(C(CC#N)C2CC2)c1 (mixture of isomers) [Example 326, 3-cyclopropyl-3-(4-{5-methoxy-2-[(3-{[(3S)-3-methoxypyrrolidin-1-yl]carbonyl}phenyl)amino]pyrimidin-4-yl}-1H-pyrazol-1-yl)propanenitrile]
N#CCC(C1CCCC1)n1cc(-c2ccnc(Nc3cccc(N)c3)n2)cn1 (racemic) [Example 108, 3-(4-(2-(3-aminophenylamino)pyrimidin-4-yl)-1H-pyrazol-1-yl)-3-cyclopentylpropanenitrile]
COc1cnc(Nc2cccc(C(=O)N3[C@@H]4CC[C@H]3C[C@@H](O)C4)c2)nc1-c1cnn(C(CC#N)C2CC2)c1 (mixture of isomers) [Example 332, 3-cyclopropyl-3-(4-{2-[(3-{[(3-endo)-3-hydroxy-8-azabicyclo[3.2.1]oct-8-yl]carbonyl}phenyl)amino]-5-methoxypyrimidin-4-yl}-1H-pyrazol-1-yl)propanenitrile]
COc1ccc(Nc2nccc(-c3cnn(C4(CC#N)CCN(C(=O)c5ccno5)CC4)c3)n2)cn1 (racemic) [Example 16, 2-(1-(isoxazole-5-carbonyl)-4-(4-(2-(6-methoxypyridin-3-ylamino)pyrimidin-4-yl)-1H-pyrazol-1-yl)piperidin-4-yl)acetonitrile]
N#CCC(C1CCCC1)n1cc(-c2ccnc(Nc3cccc(C(=O)N4CC[C@@H](O)C4)c3)n2)cn1 (mixture of isomers) [Example 141, 3-cyclopentyl-3-(4-(2-(3-((R)-3-hydroxypyrrolidine-1-carbonyl)phenylamino)pyrimidin-4-yl)-1H-pyrazol-1-yl)propanenitrile]
CN(C)C(=O)c1cccc(Nc2nccc(-c3cnn(C(CC#N)C4CCCC4)c3)n2)c1 (racemic) [Example 110, 3-(4-(1-(2-cyano-1-cyclopentylethyl)-1H-pyrazol-4-yl)pyrimidin-2-ylamino)-N,N-dimethylbenzamide]
N#CCC(C1CCOCC1)n1cc(-c2ccnc(Nc3ccc(C(=O)N4CC[C@@H](O)C4)cc3)n2)cn1 (mixture of isomers) [Example 315, 3-(4-{2-[(4-{[(3R)-3-hydroxypyrrolidin-1-yl]carbonyl}phenyl)amino]pyrimidin-4-yl}-1H-pyrazol-1-yl)-3-(tetrahydro-2H-pyran-4-yl)propanenitrile]
N#CCC(C1CCCC1)n1cc(-c2ccnc(Nc3ccc(NC(=O)CN4CCOCC4)cc3)n2)cn1 (racemic) [Example 207, N-(4-(4-(1-(2-cyano-1-cyclopentylethyl)-1H-pyrazol-4-yl)pyrimidin-2-ylamino)phenyl)-2-morpholinoacetamide]
N#CCC(C1CCCC1)n1cc(-c2ccnc(Nc3cccc(C(=O)N[C@H]4CCN(Cc5ccccc5)C4)c3)n2)cn1 (mixture of isomers) [Example 167, N—((S)-1-benzylpyrrolidin-3-yl)-3-(4-(1-(2-cyano-1-cyclopentylethyl)-1H-pyrazol-4-yl)pyrimidin-2-ylamino)benzamide]
Cc1cc(CNC(=O)c2ccc(Nc3nccc(-c4cnn(C5(CC#N)CC(C#N)C5)c4)n3)cc2)no1 (single isomer, unassigned) [Example 291, 4-(4-(1-(3-cyano-1-(cyanomethyl)cyclobutyl)-1H-pyrazol-4-yl)pyrimidin-2-ylamino)-N-((5-methylisoxazol-3-yl)methyl)benzamide]
N#CCC(C1CCCC1)n1cc(-c2ccnc(Nc3ccc(NC(=O)O[C@@H]4CCOC4)cc3)n2)cn1 (mixture of isomers) [Example 199, (R)-tetrahydrofuran-3-yl 4-(4-(1-(2-cyano-1-cyclopentylethyl)-1H-pyrazol-4-yl)pyrimidin-2-ylamino)phenylcarbamate]
Cc1cnc(Nc2ccc(N3CCOCC3)cc2)nc1-c1cnn(C(CC#N)CC2CCN(C(=O)c3ccc(F)cc3F)CC2)c1 (racemic) [Example 62, 4-(1-(2,4-difluorobenzoyl)piperidin-4-yl)-3-(4-(5-methyl-2-(4-morpholinophenylamino)pyrimidin-4-yl)-1H-pyrazol-1-yl)butanenitrile]
CN(C)S(=O)(=O)Nc1cccc(Nc2nccc(-c3cnn(C(CC#N)C4CCCC4)c3)n2)c1 (racemic) [Example 202, NA-(3-(4-(1-(2-cyano-1-cyclopentylethyl)-1H-pyrazol-4-yl)pyrimidin-2-ylamino)phenyl)-N,N-dimethylsulfamide]
N#CCC(C1CC1)n1cc(-c2ccnc(Nc3cccc(-c4cnco4)c3)n2)cn1 (racemic) [Example 181, 3-cyclopropyl-3-(4-(2-(3-(oxazol-5-yl)phenylamino)pyrimidin-4-yl)-1H-pyrazol-1-yl)propanenitrile]
CCS(=O)(=O)N1CCC(CC(CC#N)n2cc(-c3nc(Nc4ccc(-n5cccn5)cc4)ncc3C)cn2)CC1 (racemic) [Example 49, 3-(4-(2-(4-(1H-pyrazol-1-yl)phenylamino)-5-methylpyrimidin-4-yl)-1H-pyrazol-1-yl)-4-(1-(ethylsulfonyl)piperidin-4-yl)butanenitrile]
N#CCC(CC1CCN(C(=O)c2ccc(F)cc2F)CC1)n1cc(-c2ccnc(Nc3ccc(N4CCNCC4)cc3)n2)cn1 (racemic) [Example 2, 4-(1-(2,4-difluorobenzoyl)piperidin-4-yl)-3-(4-(2-(4-(piperazin-1-yl)phenylamino)pyrimidin-4-yl)-1H-pyrazol-1-yl)butanenitrile]
Cc1cnc(Nc2ccc(N3CCOCC3)cc2)nc1-c1cnn(C(CC#N)C2CCCC2)c1 (racemic) [Example 72, 3-cyclopentyl-3-(4-(5-methyl-2-(4-morpholinophenylamino)pyrimidin-4-yl)-1H-pyrazol-1-yl)propanenitrile]
COc1cnc(Nc2cccc(C(=O)N3CCC(C#N)CC3)c2)nc1-c1cnn(C(CC#N)C2CC2)c1 (racemic) [Example 331, 1-[3-({4-[1-(2-cyano-1-cyclopropylethyl)-1H-pyrazol-4-yl]-5-methoxypyrimidin-2-yl}amino)benzoyl]piperidine-4-carbonitrile]
N#CCC1(n2cc(-c3ccnc(Nc4ccc(N5CCCC5=O)cc4)n3)cn2)CC(C#N)C1 (single isomer, unassigned) [Example 340, 3-(cyanomethyl)-3-[4-(2-{[4-(2-oxopyrrolidin-1-yl)phenyl]amino}pyrimidin-4-yl)-1H-pyrazol-1-yl]cyclobutanecarbonitrile]
Cc1cnc(Nc2cccc(-c3cnco3)c2)nc1-c1cnn(C(CC#N)C2CCCC2)c1 (racemic) [Example 84, 3-cyclopentyl-3-(4-(5-methyl-2-(3-(oxazol-5-yl)phenylamino)pyrimidin-4-yl)-1H-pyrazol-1-yl)propanenitrile]
CCS(=O)(=O)N1CC(CC#N)(n2cc(-c3ccnc(Nc4ccc(C(=O)N5CCCC5)cc4)n3)cn2)C1 [Example 258, 2-(1-(ethylsulfonyl)-3-(4-(2-(4-(pyrrolidine-1-carbonyl)phenylamino)pyrimidin-4-yl)-1H-pyrazol-1-yl)azetidin-3-yl)acetonitrile]
N#CCC(C1CCCC1)n1cc(-c2ccnc(Nc3ccc(NC(=O)CNCC4CC4)cc3)n2)cn1 (racemic) [Example 210, N-(4-(4-(1-(2-cyano-1-cyclopentylethyl)-1H-pyrazol-4-yl)pyrimidin-2-ylamino)phenyl)-2-(cyclopropylmethylamino)acetamide]
CN1CCN(C(=O)c2ccc(Nc3nccc(-c4cnn(C5(CC#N)CC(C#N)C5)c4)n3)cc2)CC1 (single isomer, unassigned) [Example 293, 3-(cyanomethyl)-3-(4-(2-(4-(4-methylpiperazine-1-carbonyl)phenylamino)pyrimidin-4-yl)-1H-pyrazol-1-yl)cyclobutanecarbonitrile]
CCS(=O)(=O)N1CC(CC#N)(n2cc(-c3ccnc(Nc4ccc(C(=O)N5CCC(N(C)C)C5)cc4)n3)cn2)C1 (racemic) [Example 282, 2-(3-(4-(2-(4-(3-(dimethylamino)pyrrolidine-1-carbonyl)phenylamino)pyrimidin-4-yl)-1H-pyrazol-1-yl)-1-(ethylsulfonyl)azetidin-3-yl)acetonitrile]
CS(=O)(=O)N1CCC(CC(CC#N)n2cc(-c3ccnc(Nc4ccc(N5CCOCC5=O)cc4)n3)cn2)CC1 (racemic) [Example 95, 4-(1-(methylsulfonyl)piperidin-4-yl)-3-(4-(2-(4-(3-oxomorpholino)phenylamino)pyrimidin-4-yl)-1H-pyrazol-1-yl)butanenitrile]
